# Data published in ChEMBL document CHEMBL5465560, “Selectivity Literature for EUbOPEN Chemogenomic Library” (2024).
# How the values were obtained:
# [1] = biological target: Serine/threonine-protein kinase VRK2 (Homo sapiens) (UniProt Q86Y07); experiment: Selectivity interaction (ActivX KiNativ screen (kinase selectivity in THP-1 cell lysates)) EUB0000639a VRK2; type: subcellular; conditions: lysate
# [2] = biological target: T1, Cyclin-G-associated kinase (Homo sapiens) (UniProt O14976); experiment: Selectivity interaction (KinomeScan (DiscoverX)) EUB0000229b GAK; conditions: at 10 µM
# T1 sequence (whole entry): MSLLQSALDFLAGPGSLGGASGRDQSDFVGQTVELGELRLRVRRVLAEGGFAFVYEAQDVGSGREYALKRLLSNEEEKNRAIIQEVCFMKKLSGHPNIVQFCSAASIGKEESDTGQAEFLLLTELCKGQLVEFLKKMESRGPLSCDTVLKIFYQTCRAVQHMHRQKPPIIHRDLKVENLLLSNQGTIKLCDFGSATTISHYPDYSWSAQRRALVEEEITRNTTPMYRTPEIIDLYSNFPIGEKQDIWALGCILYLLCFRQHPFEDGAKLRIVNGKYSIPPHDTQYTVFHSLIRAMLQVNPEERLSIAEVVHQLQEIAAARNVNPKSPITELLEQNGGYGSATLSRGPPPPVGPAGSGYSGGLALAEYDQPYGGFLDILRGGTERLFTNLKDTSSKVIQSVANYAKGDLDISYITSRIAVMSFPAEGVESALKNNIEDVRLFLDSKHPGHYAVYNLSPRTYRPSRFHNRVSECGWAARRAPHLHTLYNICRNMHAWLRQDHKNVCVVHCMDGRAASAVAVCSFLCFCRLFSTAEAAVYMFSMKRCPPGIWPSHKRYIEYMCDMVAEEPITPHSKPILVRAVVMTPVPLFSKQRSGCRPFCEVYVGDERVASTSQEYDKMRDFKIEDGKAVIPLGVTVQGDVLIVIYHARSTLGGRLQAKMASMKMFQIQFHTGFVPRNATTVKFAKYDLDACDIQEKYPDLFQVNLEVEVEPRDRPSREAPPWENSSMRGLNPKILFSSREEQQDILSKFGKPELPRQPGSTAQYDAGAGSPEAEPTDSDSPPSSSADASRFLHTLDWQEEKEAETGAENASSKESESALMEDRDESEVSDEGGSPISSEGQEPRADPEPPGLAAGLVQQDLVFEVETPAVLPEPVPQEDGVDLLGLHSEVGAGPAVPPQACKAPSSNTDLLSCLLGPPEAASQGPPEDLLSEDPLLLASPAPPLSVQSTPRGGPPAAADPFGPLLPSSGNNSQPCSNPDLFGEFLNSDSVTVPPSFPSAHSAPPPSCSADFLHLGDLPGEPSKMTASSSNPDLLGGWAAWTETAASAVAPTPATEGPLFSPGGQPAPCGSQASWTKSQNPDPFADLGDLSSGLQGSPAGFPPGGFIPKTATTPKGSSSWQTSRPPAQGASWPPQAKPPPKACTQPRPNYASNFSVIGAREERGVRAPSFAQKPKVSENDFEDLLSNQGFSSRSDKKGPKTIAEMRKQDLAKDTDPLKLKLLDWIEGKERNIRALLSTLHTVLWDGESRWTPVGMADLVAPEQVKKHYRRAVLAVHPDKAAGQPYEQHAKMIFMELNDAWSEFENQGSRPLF
# [3] = biological target: T2, Tyrosine-protein kinase Mer (Homo sapiens) (UniProt Q12866); experiment: Selectivity interaction (Upstate Kinase Profiler service (Millipore)) EUB0000056c MERTK; conditions: at 1 µM
# T2 sequence (whole entry): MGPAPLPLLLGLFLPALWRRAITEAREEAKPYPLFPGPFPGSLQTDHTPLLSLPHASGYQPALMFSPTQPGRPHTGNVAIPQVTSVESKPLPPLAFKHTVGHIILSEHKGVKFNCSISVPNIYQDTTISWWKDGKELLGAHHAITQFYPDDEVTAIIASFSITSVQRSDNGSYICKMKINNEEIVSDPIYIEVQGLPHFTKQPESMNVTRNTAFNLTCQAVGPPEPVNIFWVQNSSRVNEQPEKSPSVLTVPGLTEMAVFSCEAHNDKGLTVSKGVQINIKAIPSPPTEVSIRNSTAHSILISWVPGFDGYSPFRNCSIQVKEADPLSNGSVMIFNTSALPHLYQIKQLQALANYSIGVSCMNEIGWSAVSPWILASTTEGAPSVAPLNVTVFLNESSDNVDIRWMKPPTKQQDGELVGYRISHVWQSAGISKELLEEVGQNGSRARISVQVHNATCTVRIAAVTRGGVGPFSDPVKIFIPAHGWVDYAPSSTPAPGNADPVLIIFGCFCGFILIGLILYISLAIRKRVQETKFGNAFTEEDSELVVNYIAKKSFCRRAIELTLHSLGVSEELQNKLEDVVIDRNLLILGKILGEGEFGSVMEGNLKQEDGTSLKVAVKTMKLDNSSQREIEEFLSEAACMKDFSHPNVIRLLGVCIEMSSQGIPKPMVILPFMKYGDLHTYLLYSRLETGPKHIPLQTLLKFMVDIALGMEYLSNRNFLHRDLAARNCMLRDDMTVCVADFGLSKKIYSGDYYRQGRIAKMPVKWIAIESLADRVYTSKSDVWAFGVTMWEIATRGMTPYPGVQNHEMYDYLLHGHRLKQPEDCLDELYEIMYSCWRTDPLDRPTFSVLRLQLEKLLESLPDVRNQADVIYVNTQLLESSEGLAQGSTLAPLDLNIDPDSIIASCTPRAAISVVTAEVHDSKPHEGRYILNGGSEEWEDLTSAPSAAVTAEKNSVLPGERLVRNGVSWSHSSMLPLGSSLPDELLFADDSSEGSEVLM
# [4] = biological target: Myosin light chain kinase, smooth muscle (Homo sapiens, UniProt Q15746); experiment: Selectivity interaction (KinomeScan (DiscoverX)) EUB0000045b MYLK; conditions: at 1 µM
# Sequence of Myosin light chain kinase, smooth muscle (Q15746 whole entry): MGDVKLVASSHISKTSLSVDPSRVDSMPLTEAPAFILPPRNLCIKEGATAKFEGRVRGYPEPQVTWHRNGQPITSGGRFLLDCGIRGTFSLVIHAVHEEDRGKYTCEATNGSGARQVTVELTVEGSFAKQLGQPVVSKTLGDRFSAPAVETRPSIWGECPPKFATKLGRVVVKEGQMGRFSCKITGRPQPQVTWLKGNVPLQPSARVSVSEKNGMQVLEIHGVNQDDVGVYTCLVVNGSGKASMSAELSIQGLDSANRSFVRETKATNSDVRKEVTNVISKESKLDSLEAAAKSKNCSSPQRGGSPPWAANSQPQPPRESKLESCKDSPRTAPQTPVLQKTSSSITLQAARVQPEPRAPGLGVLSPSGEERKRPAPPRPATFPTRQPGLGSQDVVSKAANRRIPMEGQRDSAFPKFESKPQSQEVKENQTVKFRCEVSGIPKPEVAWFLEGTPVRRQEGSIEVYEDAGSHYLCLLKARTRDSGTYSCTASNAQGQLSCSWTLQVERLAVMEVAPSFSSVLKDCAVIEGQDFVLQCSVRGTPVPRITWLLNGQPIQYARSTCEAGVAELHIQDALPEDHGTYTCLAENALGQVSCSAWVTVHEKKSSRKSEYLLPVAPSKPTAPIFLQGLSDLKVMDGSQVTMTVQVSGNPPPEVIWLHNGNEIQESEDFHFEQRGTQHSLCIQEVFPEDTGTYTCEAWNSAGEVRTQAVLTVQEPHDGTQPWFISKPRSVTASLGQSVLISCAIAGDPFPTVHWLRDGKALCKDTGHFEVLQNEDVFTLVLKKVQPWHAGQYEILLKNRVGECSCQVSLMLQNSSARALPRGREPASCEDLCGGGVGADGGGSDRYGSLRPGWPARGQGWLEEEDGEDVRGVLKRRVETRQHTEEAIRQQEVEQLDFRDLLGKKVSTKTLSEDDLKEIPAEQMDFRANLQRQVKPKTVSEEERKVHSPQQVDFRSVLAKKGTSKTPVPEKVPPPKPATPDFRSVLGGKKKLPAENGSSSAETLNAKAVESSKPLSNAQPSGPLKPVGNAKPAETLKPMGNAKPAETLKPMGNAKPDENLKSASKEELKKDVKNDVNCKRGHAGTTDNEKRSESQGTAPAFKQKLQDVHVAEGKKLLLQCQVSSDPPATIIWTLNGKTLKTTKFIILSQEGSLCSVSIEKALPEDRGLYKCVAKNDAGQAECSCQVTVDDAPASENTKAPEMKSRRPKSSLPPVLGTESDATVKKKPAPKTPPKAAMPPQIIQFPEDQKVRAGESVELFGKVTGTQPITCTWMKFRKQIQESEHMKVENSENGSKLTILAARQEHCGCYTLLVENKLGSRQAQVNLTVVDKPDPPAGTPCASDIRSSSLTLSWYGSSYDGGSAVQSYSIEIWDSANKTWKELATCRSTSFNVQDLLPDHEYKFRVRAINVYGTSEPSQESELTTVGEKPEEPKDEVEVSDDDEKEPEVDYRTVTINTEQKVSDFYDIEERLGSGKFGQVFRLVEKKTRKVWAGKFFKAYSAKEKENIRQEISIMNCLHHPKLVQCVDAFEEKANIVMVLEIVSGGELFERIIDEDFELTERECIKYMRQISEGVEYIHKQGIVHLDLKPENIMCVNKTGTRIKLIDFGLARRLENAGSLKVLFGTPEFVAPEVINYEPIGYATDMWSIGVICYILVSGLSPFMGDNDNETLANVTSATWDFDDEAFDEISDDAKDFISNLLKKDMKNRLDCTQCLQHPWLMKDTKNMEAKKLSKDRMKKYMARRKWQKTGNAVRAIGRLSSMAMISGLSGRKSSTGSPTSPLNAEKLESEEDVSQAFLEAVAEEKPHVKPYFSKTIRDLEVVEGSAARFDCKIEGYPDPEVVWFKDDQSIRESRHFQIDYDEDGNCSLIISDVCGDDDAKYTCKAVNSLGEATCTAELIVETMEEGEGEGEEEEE
# Sequence of Serine/threonine-protein kinase VRK2 (Homo sapiens) (Q86Y07 whole entry): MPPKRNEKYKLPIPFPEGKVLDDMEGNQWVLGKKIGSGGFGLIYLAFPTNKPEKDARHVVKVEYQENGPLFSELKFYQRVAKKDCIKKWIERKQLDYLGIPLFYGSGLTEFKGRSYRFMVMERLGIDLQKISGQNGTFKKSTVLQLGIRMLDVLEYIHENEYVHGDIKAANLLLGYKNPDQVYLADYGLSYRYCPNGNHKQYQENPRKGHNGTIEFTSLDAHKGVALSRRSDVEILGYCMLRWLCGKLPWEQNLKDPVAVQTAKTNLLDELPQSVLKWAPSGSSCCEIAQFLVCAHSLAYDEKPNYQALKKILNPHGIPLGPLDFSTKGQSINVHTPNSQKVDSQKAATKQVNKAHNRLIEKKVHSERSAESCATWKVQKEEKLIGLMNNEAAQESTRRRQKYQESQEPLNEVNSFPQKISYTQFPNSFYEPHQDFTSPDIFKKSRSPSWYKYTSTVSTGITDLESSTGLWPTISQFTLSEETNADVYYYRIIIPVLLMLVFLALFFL
compound,measurement,setting,value
CC[C@@H]1[C@H](F)C(=O)N[C@@H]1COc1nccc2cc(C(N)=O)c(OC)cc12 [ZIMLOVISERTIB],% of inhibition,[1]; at 0.01 µM,-16.6%
same,% of inhibition,[1]; at 0.04 µM,-6%
same,% of inhibition,[1]; at 0.2 µM,-28.4%
same,% of inhibition,[1]; at 1 µM,-14.8%
same,% of inhibition,[1]; at 5 µM,8.1%
COc1cc(N(C)c2ccnc3ccc(C(F)(F)F)cc23)cc(OC)c1OC,% binding,[2],43%
Cc1ccc(-c2ccc3c(ccc4sc5c(c43)NC[C@@H](C)NC5=O)n2)cn1,% of inhibition,[3],97%
C=CC(=O)Nc1cc(-n2c(=O)ccc3cnc4ccc(-c5ccc(NS(C)(=O)=O)cc5)cc4c32)ccc1C,% of control,[4],100%
